Reference: US20210177889A1, “GASEOUS PHARMACEUTICAL COMPOSITION FOR HYPERTENSION THERAPY” (KEIO UNIVERSITY, priority 2019, published 2021)

Legend:
[1] = system: spontaneous hypertension rats (SHR); test: Hemodynamics effect of inhaled H2 in spontaneous hypertension rats (telemetry); type: in vivo, rat (SHR/Izumo)
Protocol: Male Lewis rats (8 weeks-old, body weight 250-300 g), and 10 weeks-old male spontaneous hypertension rats (SHR/Izumo rats; hereinafter simply referred to as SHR) were used (CLEA Japan). Rats were given water and standard food ad libitum, and were not fasted before experiment. Rats were kept under a condition of standardized temperature (22±1° C.) and humidity (55±5) in a 12 hours:12 hours of light-dark cycle. Rats were acclimated to the experimental condition from at least one week before the experiment. This research was approved by institutional animal control committees (Keio University [Tokyo], No. 13002-4; and Nippon Veterinary and Life Science University [Tokyo], No. 30K-61). Rats were randomly assigned to the H2 group or the control group.
In order to monitor continuous blood pressure fluctuation, telemetry transmitters were implanted into rats. Specifically, rats were anesthetized with isoflurane, and the left groin was disinfected with 1% chlorhexidine. An incision of about 1.5 cm was made in the left groin, the left femoral artery was exposed, and a telemetry transmitter (HD-S10, Physiotel HD Telemetry, Data Science International) catheter was inserted into the left femoral artery. The tip of the transmitter catheter was placed in the abdominal aorta caudally from the branch of the renal artery. The transmitter body was inserted into a subcutaneous pocket made in the left lower back, and the skin was sutured. All surgical intervention was performed under sterile conditions.
H2 gas (1.3% H2+21% O2+77.7 N2) and control gas (21% O2+79% N2) were filled into gas cylinders in advance at a factory. The H2 group and the control group were allowed to inhale the H2 gas and the control gas that were mixed in advance. All animals were allowed to inhale the assigned gas at 10 L/minute for 1 hour in an established anesthesia box, and inhaled for an additional three minutes to purge the box (i.e. a total of 63 minutes). In the nephrectomy model and SHR, gas inhalation was repeated every day for 4 weeks and 2 weeks, respectively.
Spontaneous hypertension rats (SHR) are a well-established hereditary hypertensive model that is broadly used in hypertensive research (Okamoto, K. & Aoki, K. Development of a strain of spontaneously hypertensive rats. Jpn. Circ. J. 27, 282-293 (1963); and Rubattu, S., Struk, B., Kreutz, R., Volpe, M. & Lindpaintner, K. Animal models of genetic hypertension: what can we learn for human hypertension? Clin. Exp. Pharmacol. Physiol. 22, S386-393 (1995)). In order to investigate the consistency of the hypotensive effect of H2 in other hypertensive models, the therapeutic effect of H2 gas against hypertension of SHR was investigated (FIG. 1d). […]

[2] = system: hypertension established after 5/6 nephrectomy; test: Therapeutic effect of delayed H2 inhalation on hypertension established after 5/6 nephrectomy (tail-cuff); type: in vivo, Lewis rat; conditions: N=17
Protocol: At about 24 hours after the final gas inhalation of 5/6 nephrectomized rats, blood pressure and heart rate were non-invasively measured using the tail-cuff pressure measurement method (BP-98A, Softron). The hemodynamics parameter was measured three times, and the median was adopted as the representative value. In order to elicit renal hypertension, 5/6 nephrectomy was carried out with slight modification to previously described methods (Nephrology (Carlton) 19, 552-561; 10.1111/nep.12279 (2014); J. Am. Soc. Nephrol. 4, 2023-2031 (1994); and Kidney Int. 40, 29-34; 10.1038/ki.1991.175 (1991).). Briefly, rats were anesthetized by isoflurane inhalation (induction at 4% and maintenance at 1.5%), and upper midline laparotomy of about 4 cm was carried out. Surgical operation was performed under a microscope, the left renal artery branch was identified, and selectively ligated with 7-0 silk at a position as close as possible to the left kidney so that macroscopic infarction is caused in about ⅔ of the left renal cortex. In the first pilot research (FIGS. 1a and 2), a high-temperature cautery pen (AA11, Bovie, Tenn., U.S.A.) was used to add the resection of the infarcted portion of the kidney. Subsequently, the right renal artery, the renal vein, and the urinary duct was ligated with 4-0 silk, and the right kidney were resected. […]

[3] = Week 2 compared to Week 1 of daily inhalation, N=3
[4] = Week 3 (week after 2 weeks of inhalation)

[2H][2H] [H2 gas, Molecular hydrogen (H2)]
increase in blood pressure [1, 3]: suppressed
increase in heart rate [1, 3]: suppressed
blood pressure after inhalation was stopped [1, 4]: stayed low
heart rate after inhalation was stopped [1, 4]: stayed low
duration of hypotensive effect ([2]; delayed inhalation, one hour daily for 4 weeks): continued through the inhalation duration
blood pressure (established hypertension) ([2]; inhalation started 3 weeks after 5/6 nephrectomy, one week after starting H2 inhalation, no statistically significant difference): began to decrease
